Results published in patent publication US12097329B2, “Apparatus to administer drugs to mechanically ventilated patients” (Chiesi Farmaceutici S.p.A., priority 2018, dated 2024).
Structures can show the parent of a compound that is named as a salt.

Key:
[1] = Aerosol performance by Next Generation Impactor (NGI), drug quantified by HPLC; format: physicochemical; details: BDP + FF 100 + 6 μg/10 mg DPI 37° C. 75% RH T-vol 500; connected to ventilation system through the connector
Procedure: A powder formulation was prepared according to the teaching of Examples 2 and 3 of WO 2013/110632 and loaded in the multi-dose dry powder inhaler described in WO 2016/000983. A ventilator system Monnal T75, available from Air Liquid Medical Systems […], Italy) was used. A Catheter mounth (ID 10 mm, length 17 cm) and an endotracheal catheter (ID 8 mm, length 8.5 cm) were also utilized. Other equipments were standard. The following conditions were set-up: tidal volume: 500 ml; PEEP 5 cmH2O; Flow rate: about 41 l/min; breath frequency: 15 bpm. All tests were performed at room temperature and lung temperature (about 37° C.) with in line humidification (about 75% relative humidity system). The inhaler was connected to the ventilation system through the connector of the invention. The evaluation of the aerosol performance was carried out using the Next Generation Impactor (NGI) according to the conditions reported in the European Pharmacopeia 8.5th Ed 2015, par 2.9.18, pages 309-320. After aerosolization of three doses from the inhaler device, the NGI apparatus was disassembled and the amounts of drug deposited in the stages were recovered by washing with a solvent mixture and then quantified by High-Performance Liquid Chromatography (HPLC).

[2] = as above; format: physicochemical; details: BDP + FF 100 + 6 μg/10 mg DPI - Release

SMILES	DD (delivered dose) [1]	DD (delivered dose) [2]	EFPF (extrafine particle fraction) [1]	EFPM (extrafine FPM) [1]	FPF (fine particle fraction) [1]	FPM (fine particle mass, particle size equal to or lower than 5.0 micron) [1]	EFPF (extrafine particle fraction) [2]	EFPM (extrafine FPM) [2]	FPF (fine particle fraction) [2]	FPM (fine particle mass, particle size equal to or lower than 5.0 micron) [2]
COc1ccc(CC(C)NCC(O)c2ccc(O)c(NC=O)c2)cc1 (stereo not drawn) [FF, formoterol fumarate dihydrate]	3.84 µg	4.64 µg	–	–	–	–	–	–	–	–
CCC(=O)OCC(=O)[C@@]1(OC(=O)CC)[C@@H](C)C[C@H]2[C@@H]3CCC4=CC(=O)C=C[C@]4(C)[C@@]3(Cl)[C@@H](O)C[C@@]21C [BDP, beclometasone dipropionate]	66.52 µg	81.05 µg	34.76 % on DD	23.12 µg	61.92 % on DD	41.19 µg	29.43 % on DD	23.85 µg	64.14 % on DD	51.99 µg
